{
  "source": "the NIST ThermoML archive (doi:10.1021/acs.jced.5b00447)",
  "key": {"[1]": {"details": "for surface tension liquid-gas: wilhelmi plate; for viscosity / mass density / speed of sound: 100 kPa, Liquid; for viscosity: Capillary tube (Ostwald / Ubbelohde) method; for mass density: Vibrating tube method; for speed of sound: Frequency=3 MHz, Sing-around technique in a fixed-path interferometer"}, "[2]": {"experiment": "xn = mol fraction of the nth substance listed", "details": "for surface tension liquid-gas: wilhelmi plate; for viscosity / speed of sound / mass density: 100 kPa, Liquid; for viscosity: Capillary tube (Ostwald / Ubbelohde) method; for speed of sound: Frequency=3 MHz, Sing-around technique in a fixed-path interferometer; for mass density: Vibrating tube method"}},
  "note": "Numbers after ± are expanded uncertainties.",
  "data": [
    {"smiles": "O", "note": "[water]", "values": [
      {"measurement": "surface tension liquid-gas", "setting": "[1]; 293.15 K", "value": "72.6 ± 0.3", "unit": "mN/m"},
      {"measurement": "viscosity", "setting": "[1]; 293.15 K", "value": "0.993 ± 0.082", "unit": "mPa·s"},
      {"measurement": "mass density", "setting": "[1]; 293.15 K", "value": "998 ± 2", "unit": "kg/m3"},
      {"measurement": "surface tension liquid-gas", "setting": "[1]; 298.15 K", "value": "72.1 ± 0.3", "unit": "mN/m"},
      {"measurement": "viscosity", "setting": "[1]; 298.15 K", "value": "0.891 ± 0.079", "unit": "mPa·s"},
      {"measurement": "surface tension liquid-gas", "setting": "[1]; 303.15 K", "value": "71.1 ± 0.3", "unit": "mN/m"},
      {"measurement": "viscosity", "setting": "[1]; 303.15 K", "value": "0.797 ± 0.063", "unit": "mPa·s"},
      {"measurement": "mass density", "setting": "[1]; 303.15 K", "value": "996 ± 2", "unit": "kg/m3"},
      {"measurement": "surface tension liquid-gas", "setting": "[1]; 313.15 K", "value": "69.2 ± 0.3", "unit": "mN/m"},
      {"measurement": "viscosity", "setting": "[1]; 313.15 K", "value": "0.654 ± 0.05", "unit": "mPa·s"},
      {"measurement": "speed of sound", "setting": "[1]; 313.15 K", "value": "1529.1 ± 1.6", "unit": "m/s"},
      {"measurement": "mass density", "setting": "[1]; 313.15 K", "value": "992 ± 2", "unit": "kg/m3"},
      {"measurement": "surface tension liquid-gas", "setting": "[1]; 323.15 K", "value": "67.7 ± 0.3", "unit": "mN/m"},
      {"measurement": "viscosity", "setting": "[1]; 323.15 K", "value": "0.547 ± 0.043", "unit": "mPa·s"},
      {"measurement": "mass density", "setting": "[1]; 323.15 K", "value": "988 ± 2", "unit": "kg/m3"}
    ]},
    {"smiles": "CN(C)CCN", "note": "[2-dimethylamino-1-ethylamine]", "values": [
      {"measurement": "surface tension liquid-gas", "setting": "[1]; 293.15 K", "value": "26.4 ± 0.4", "unit": "mN/m"},
      {"measurement": "viscosity", "setting": "[1]; 293.15 K", "value": "0.988 ± 0.075", "unit": "mPa·s"},
      {"measurement": "speed of sound", "setting": "[1]; 293.15 K", "value": "1319.6 ± 2.5", "unit": "m/s"},
      {"measurement": "mass density", "setting": "[1]; 293.15 K", "value": "819 ± 2", "unit": "kg/m3"},
      {"measurement": "surface tension liquid-gas", "setting": "[1]; 298.15 K", "value": "26.1 ± 0.4", "unit": "mN/m"},
      {"measurement": "viscosity", "setting": "[1]; 298.15 K", "value": "0.895 ± 0.068", "unit": "mPa·s"},
      {"measurement": "speed of sound", "setting": "[1]; 298.15 K", "value": "1300.8 ± 2.5", "unit": "m/s"},
      {"measurement": "mass density", "setting": "[1]; 298.15 K", "value": "814.3 ± 2.1", "unit": "kg/m3"},
      {"measurement": "surface tension liquid-gas", "setting": "[1]; 303.15 K", "value": "25.8 ± 0.4", "unit": "mN/m"},
      {"measurement": "viscosity", "setting": "[1]; 303.15 K", "value": "0.819 ± 0.054", "unit": "mPa·s"},
      {"measurement": "speed of sound", "setting": "[1]; 303.15 K", "value": "1279.3 ± 2.5", "unit": "m/s"},
      {"measurement": "mass density", "setting": "[1]; 303.15 K", "value": "810 ± 2", "unit": "kg/m3"},
      {"measurement": "surface tension liquid-gas", "setting": "[1]; 313.15 K", "value": "25.2 ± 0.4", "unit": "mN/m"},
      {"measurement": "viscosity", "setting": "[1]; 313.15 K", "value": "0.693 ± 0.045", "unit": "mPa·s"},
      {"measurement": "speed of sound", "setting": "[1]; 313.15 K", "value": "1239 ± 2.5", "unit": "m/s"},
      {"measurement": "mass density", "setting": "[1]; 313.15 K", "value": "801 ± 2", "unit": "kg/m3"},
      {"measurement": "surface tension liquid-gas", "setting": "[1]; 323.15 K", "value": "24.5 ± 0.4", "unit": "mN/m"},
      {"measurement": "viscosity", "setting": "[1]; 323.15 K", "value": "0.596 ± 0.039", "unit": "mPa·s"},
      {"measurement": "speed of sound", "setting": "[1]; 323.15 K", "value": "1199.3 ± 2.5", "unit": "m/s"},
      {"measurement": "mass density", "setting": "[1]; 323.15 K", "value": "791 ± 2", "unit": "kg/m3"}
    ]},
    {"smiles": "CN(C)CCO", "note": "[2-(N,N-dimethylamino)ethanol]", "values": [
      {"measurement": "surface tension liquid-gas", "setting": "[1]; 298.15 K", "value": "31.3 ± 0.4", "unit": "mN/m"},
      {"measurement": "viscosity", "setting": "[1]; 298.15 K", "value": "3.69 ± 0.42", "unit": "mPa·s"},
      {"measurement": "speed of sound", "setting": "[1]; 298.15 K", "value": "1335.9 ± 2.5", "unit": "m/s"},
      {"measurement": "mass density", "setting": "[1]; 298.15 K", "value": "882.8 ± 2.1", "unit": "kg/m3"}
    ]},
    {"smiles": "CN(C)CCN", "note": "[2-dimethylamino-1-ethylamine] + NCCO", "values": [
      {"measurement": "surface tension liquid-gas", "setting": "[2]; 293.15 K, x1 = 0.5", "value": "32.4 ± 0.4", "unit": "mN/m"},
      {"measurement": "viscosity", "setting": "[2]; 293.15 K, x1 = 0.5", "value": "10.74 ± 0.095", "unit": "mPa·s"},
      {"measurement": "speed of sound", "setting": "[2]; 293.15 K, x1 = 0.5", "value": "1498.1 ± 2.2", "unit": "m/s"},
      {"measurement": "mass density", "setting": "[2]; 293.15 K, x1 = 0.5", "value": "941 ± 2", "unit": "kg/m3"},
      {"measurement": "surface tension liquid-gas", "setting": "[2]; 303.15 K, x1 = 0.5", "value": "31.6 ± 0.4", "unit": "mN/m"},
      {"measurement": "viscosity", "setting": "[2]; 303.15 K, x1 = 0.5", "value": "7.169 ± 0.065", "unit": "mPa·s"},
      {"measurement": "speed of sound", "setting": "[2]; 303.15 K, x1 = 0.5", "value": "1463.7 ± 2.2", "unit": "m/s"},
      {"measurement": "mass density", "setting": "[2]; 303.15 K, x1 = 0.5", "value": "932 ± 2", "unit": "kg/m3"},
      {"measurement": "surface tension liquid-gas", "setting": "[2]; 313.15 K, x1 = 0.5", "value": "30.9 ± 0.4", "unit": "mN/m"},
      {"measurement": "viscosity", "setting": "[2]; 313.15 K, x1 = 0.5", "value": "5.066 ± 0.047", "unit": "mPa·s"},
      {"measurement": "speed of sound", "setting": "[2]; 313.15 K, x1 = 0.5", "value": "1428.9 ± 2.2", "unit": "m/s"},
      {"measurement": "mass density", "setting": "[2]; 313.15 K, x1 = 0.5", "value": "924 ± 2", "unit": "kg/m3"},
      {"measurement": "surface tension liquid-gas", "setting": "[2]; 323.15 K, x1 = 0.5", "value": "30.3 ± 0.4", "unit": "mN/m"},
      {"measurement": "viscosity", "setting": "[2]; 323.15 K, x1 = 0.5", "value": "3.517 ± 0.033", "unit": "mPa·s"},
      {"measurement": "speed of sound", "setting": "[2]; 323.15 K, x1 = 0.5", "value": "1394.1 ± 2.2", "unit": "m/s"},
      {"measurement": "mass density", "setting": "[2]; 323.15 K, x1 = 0.5", "value": "916 ± 2", "unit": "kg/m3"}
    ]},
    {"smiles": "NCCO", "note": "[2-aminoethan-1-ol]", "values": [
      {"measurement": "surface tension liquid-gas", "setting": "[1]; 298.15 K", "value": "49.1 ± 0.4", "unit": "mN/m"},
      {"measurement": "viscosity", "setting": "[1]; 298.15 K", "value": "18.74 ± 4.7", "unit": "mPa·s"},
      {"measurement": "speed of sound", "setting": "[1]; 298.15 K", "value": "1719.2 ± 1.9", "unit": "m/s"},
      {"measurement": "mass density", "setting": "[1]; 298.15 K", "value": "1012 ± 2", "unit": "kg/m3"}
    ]},
    {"smiles": "O", "note": "[water] + CN(C)CCN", "values": [
      {"measurement": "surface tension liquid-gas", "setting": "[2]; 293.15 K, x2 = 0", "value": "72.6 ± 0.6", "unit": "mN/m"},
      {"measurement": "viscosity", "setting": "[2]; 293.15 K, x2 = 0", "value": "0.993 ± 0.006", "unit": "mPa·s"},
      {"measurement": "mass density", "setting": "[2]; 293.15 K, x2 = 0", "value": "998 ± 2", "unit": "kg/m3"},
      {"measurement": "surface tension liquid-gas", "setting": "[2]; 303.15 K, x2 = 0", "value": "71.1 ± 0.6", "unit": "mN/m"},
      {"measurement": "viscosity", "setting": "[2]; 303.15 K, x2 = 0", "value": "0.797 ± 0.005", "unit": "mPa·s"},
      {"measurement": "mass density", "setting": "[2]; 303.15 K, x2 = 0", "value": "996 ± 2", "unit": "kg/m3"},
      {"measurement": "surface tension liquid-gas", "setting": "[2]; 313.15 K, x2 = 0", "value": "69.2 ± 0.6", "unit": "mN/m"},
      {"measurement": "viscosity", "setting": "[2]; 313.15 K, x2 = 0", "value": "0.654 ± 0.005", "unit": "mPa·s"},
      {"measurement": "speed of sound", "setting": "[2]; 313.15 K, x2 = 0", "value": "1529.1 ± 1.6", "unit": "m/s"},
      {"measurement": "mass density", "setting": "[2]; 313.15 K, x2 = 0", "value": "992 ± 2", "unit": "kg/m3"},
      {"measurement": "surface tension liquid-gas", "setting": "[2]; 323.15 K, x2 = 0", "value": "67.7 ± 0.6", "unit": "mN/m"},
      {"measurement": "viscosity", "setting": "[2]; 323.15 K, x2 = 0", "value": "0.547 ± 0.004", "unit": "mPa·s"},
      {"measurement": "mass density", "setting": "[2]; 323.15 K, x2 = 0", "value": "988 ± 2", "unit": "kg/m3"}
    ]}
  ]
}
